Patent publication US7482024B2, “Compositions comprising an active agent” (Nektar Therapeutics, priority 1999, dated 2009)
Where “and” joins values, the source holds several entries; their conditions need not be identical. Identical values can stand only once. Entries after “also recorded” stand apart in the source; their conditions may differ.

Experiment: Surface tension measurement, Kruss Processor Tensiometer-K12, Wilhelmy-method (plate method)
Assay type: physicochemical
Conditions: for Surface tension, 25° C. Extrapolated Values at 2 mg/ml / Surface tension, 45° C. Extrapolated Values at 2 mg/ml: extrapolated to 2 mg/ml
Description: A “surface active” material is one having surface activity (measured, e.g., by surface tensiometry), as characterized by its ability to reduce the surface tension of the liquid in which it is dissolved. […] A peptide that is more surface active than another peptide is one which decreases the surface tension of water to a greater extent, when present in the liquid at the same concentration and measured under the same set of experimental conditions. The surface tension of several representative dipeptides, tripeptides, and proteins was measured at 25° C. and 45° C. to provide an indication of their relative surface activities. Surface tension measurements were carried out using a Kruss Processor Tensiometer-K12 with the Wilhelmy-method (Plate method). Solutions were prepared by dissolving either 0.05%, 0.2%, or 0.6% peptide/protein (by weight) along with an appropriate amount of raffinose by weight to provide final solutions having a 1.0% by weight solids content. Surface tension measurements at 25° C. and 45° C. were then obtained for the test solutions at three different time points (49 seconds, 100 seconds and 194 seconds).

[1] = 0.2% (wt/vol) plus raffinose to 1% total solids, 25° C., 49 s
[2] = 0.2% (wt/vol) plus raffinose to 1% total solids, 25° C., 100 s
[3] = 0.2% (wt/vol) plus raffinose to 1% total solids, 25° C., 194 s
[4] = Table 2: 0.20% (wt/vol) plus 0.80% raffinose, 25° C., 49 s
[5] = Table 2: 0.20% (wt/vol) plus 0.80% raffinose, 25° C., 100 s
[6] = Table 2: 0.20% (wt/vol) plus 0.80% raffinose, 25° C., 194 s

| Substance | Surface tension (ST) [1] | Surface tension (ST) [2] | Surface tension (ST) [3] | Surface tension (ST) [4] | Surface tension (ST) [5] | Surface tension (ST) [6] | Surface tension, 25° C. Extrapolated Values at 2 mg/ml (25° C.) | Surface tension, 45° C. Extrapolated Values at 2 mg/ml (45° C.) | Surface activity (ability to lower the surface tension of water), in words | further results |
| --- | --- | --- | --- | --- | --- | --- | --- | --- | --- | --- |
| di-alanine [reference compound] | 72 mN/m and 72.1 mN/m | 72 mN/m and 71.9 mN/m and 72.1 mN/m | 71.9 mN/m and 72.1 mN/m | – | – | – | – | – | – | – |
| dileucine [di-leucine] | 58.4 mN/m and 58.7 mN/m and 60.1 mN/m | 58.1 mN/m and 58.3 mN/m and 59.8 mN/m | 57.9 mN/m and 58.2 mN/m and 59.7 mN/m | – | – | – | 60.4 mN/m | 52.4 mN/m | highly surface active; also recorded: more effective than any of the other dimers examined in reducing the surface tension of water | Surface tension, Actual MEAN (1.51 mg/ml, 25° C.): 61.5 mN/m; Surface tension, Actual MEAN (1.51 mg/ml, 45° C.): 53.2 mN/m; Surface tension, Actual MEAN (4.53 mg/ml, 25° C.): 54.9 mN/m; Surface tension, Actual MEAN (4.53 mg/ml, 45° C.): 48.2 mN/m; Surface tension, Actual MEAN (13.60 mg/ml, 25° C.): 46.6 mN/m; Surface tension, Actual MEAN (13.60 mg/ml, 45° C.): 42.7 mN/m |
| leu-leu-ala | – | – | – | – | – | – | 46.6 mN/m | 49.8 mN/m | – | Surface tension, Actual MEAN (0.76 mg/ml, 25° C.): 60.7 mN/m; Surface tension, Actual MEAN (0.76 mg/ml, 45° C.): 58.3 mN/m; Surface tension, Actual MEAN (2.27 mg/ml, 25° C.): 43.5 mN/m; Surface tension, Actual MEAN (2.27 mg/ml, 45° C.): 48.2 mN/m; Surface tension, Actual MEAN (6.80 mg/ml, 25° C.): 39.9 mN/m; Surface tension, Actual MEAN (6.80 mg/ml, 45° C.): 48.4 mN/m |
| leu-phe-leu | – | – | – | – | – | – | 48.3 mN/m | 46.2 mN/m | – | Surface tension, Actual MEAN (0.68 mg/ml, 25° C.): 54.7 mN/m; Surface tension, Actual MEAN (0.68 mg/ml, 45° C.): 53.6 mN/m; Surface tension, Actual MEAN (2.03 mg/ml, 25° C.): 48.3 mN/m; Surface tension, Actual MEAN (2.03 mg/ml, 45° C.): 46.2 mN/m; Surface tension, Actual MEAN (6.10 mg/ml, 25° C.): 41.5 mN/m; Surface tension, Actual MEAN (6.10 mg/ml, 45° C.): 39.3 mN/m |
| leu-tyr-leu | – | – | – | – | – | – | 47.9 mN/m | 44.7 mN/m | the most surface active of the trimers | Surface tension, Actual MEAN (0.32 mg/ml, 25° C.): 58.4 mN/m; Surface tension, Actual MEAN (0.32 mg/ml, 45° C.): 55.4 mN/m; Surface tension, Actual MEAN (0.97 mg/ml, 25° C.): 51.6 mN/m; Surface tension, Actual MEAN (0.97 mg/ml, 45° C.): 49.1 mN/m; Surface tension, Actual MEAN (2.90 mg/ml, 25° C.): 44.7 mN/m; Surface tension, Actual MEAN (2.90 mg/ml, 45° C.): 40.8 mN/m |

The next lines start with results.

| Surface tension (ST) [1] | Surface tension (ST) [2] | Surface tension (ST) [3] | Surface tension (ST) [4] | Surface tension (ST) [5] | Surface tension (ST) [6] | Surface tension, 25° C. Extrapolated Values at 2 mg/ml (25° C.) | Surface tension, 45° C. Extrapolated Values at 2 mg/ml (45° C.) | Substance | Surface activity (ability to lower the surface tension of water), in words | further results |
| --- | --- | --- | --- | --- | --- | --- | --- | --- | --- | --- |
| – | – | – | 67.7 mN/m and 67.6 mN/m and 68 mN/m | 71.6 mN/m and 67.2 mN/m and 67.8 mN/m | 71.6 mN/m and 67 mN/m and 67.6 mN/m | – | – | di-isoleucine [reference compound] | not particularly effective at lowering the surface tension of water | – |
| – | – | – | 71.7 mN/m and 71.6 mN/m | 71.6 mN/m | 71.6 mN/m | – | – | di-valine [reference compound] | not particularly effective at lowering the surface tension of water | – |
| 48.7 mN/m | 48.6 mN/m | 48.5 mN/m | – | – | – | – | – | salmon calcitonin [sal. Calcitonin, reference compound] | highly surface active | Surface tension (ST) (0.2% (wt/vol) plus raffinose to 1% total solids, 25° C., 49 s, listed as sal. calcitonin): 48.4 mN/m; Surface tension (ST) (0.2% (wt/vol) plus raffinose to 1% total solids, 25° C., 100 s, listed as sal. calcitonin): 48.4 mN/m; Surface tension (ST) (0.2% (wt/vol) plus raffinose to 1% total solids, 25° C., 194 s, listed as sal. calcitonin): 48.4 mN/m |
| – | – | – | 68.8 mN/m and 68.7 mN/m | 68.8 mN/m and 68.7 mN/m | 68.8 mN/m and 68.7 mN/m | – | – | tri-valine [reference compound] | not particularly effective at lowering the surface tension of water | – |
